This is an account of results in patent publication EP1022029A1, “NOOTROPIC AGENT” (priority 1997, dated 1999).

Format in all cases: cell-based
Assay [1] concerns mutant ACh receptors (mγΔPKA/Ser353,354m δΔPKA/Ser361,362) lacking PKA phosphorylation sites. Put plainly: ACh-evoked currents in mutant ACh receptors lacking PKA phosphorylation sites expressed in Xenopus oocytes. Particulars: nefiracetam 0.01 µM; 30 min after treatment; n=7. How it is done:
(§1) ACh (100 µM) was applied to each of an oocyte expressing normal ACh receptors and an oocyte expressing mutant ACh receptors (mγΔPKA/Ser353, 354m δΔPKA/Ser361,362) lacking PKA phosphorylation sites, before and after treatment with nefiracetam (0.01 µM). The oocytes expressing normal ACh receptors were treated with H-89 (1 µM) from 15 min before recording, or with pertussis toxin (0.1 µg/ml) for 24h prior to experiments. The currents illustrated in Table 16 were recorded before and 30 min after treatment with nefiracetam. The holding voltage was - 30 mV. In Table 16, each point represents the average obtained from seven oocytes.
To further examine whether the current depression by nefiracetam is due to PKA phosphorylation of the receptors or not, mutant ACh receptors lacking potent PKA phosphorylation sites on the γ and δ subunits (mγΔ PKA/Ser353,354m δΔPKA/Ser361,362) were expressed in Xenopus oocytes.

Assay [2] relates to postsynaptic potentials evoked from the hippocampal CA1 region. Put plainly: Postsynaptic potentials recorded in the CA1 pyramidal cell layer of rat hippocampal slices.
The target of assay [3] is T1, nACh receptors (α, β, γ, δ) of Torpedo (Tetronarce californica, UniProt P02710+P02712+P02714+P02718).
T1 construct: expressed in transfected cells; host or cells: Xenopus oocytes
Put plainly: ACh-evoked currents in normal nACh receptors expressed in Xenopus oocytes (two-electrode voltage clamp). How it is done:
Cell membrane currents were recorded by use of two-electrode voltage clamp techniques (T. Nishizaki et al., Ikeuchi, Brain Res. 687, 214, 1995). ACh (100 µM) was administered to a single oocyte expressing normal ACh receptors at 10-min intervals before and after 10-min treatment of the oocyte with nefiracetam. The holding voltage was -30 mV. In accordance with a conventional method, wild-type acetylcholine (nACh) receptors were expressed in Xenopus oocytes (K. Sumikawa et al., Mol. Brain Res. 5, 183, 1989), and by the application of ACh (100 µM), inward membrane currents were evoked (Table 13). Currents were recorded at 10-min intervals. During the recording period, spontaneous attenuation of the currents was within 5% (data not shown). […] After the drug was washed out, the amplitude gradually recovered (Table 13). The reductions in current were 70% (n=7) with 0.01 µM and 62% with 0.1 µM nefiracetam.
as §1
ACh (100 µM) was applied to each of an oocyte expressing normal ACh receptors and an oocyte expressing mutant ACh receptors (mγΔPKA/Ser353,354m δΔPKA/Ser361,362) lacking PKA phosphorylation sites, in the presence and absence of GF109203X (100 nM) or in calcium-free extracellular solution.
In general terms: In two-electrode clamp one electrode senses voltage and the other passes current.

Assay [4] concerns the target T2, AMPA (GluR1, 2, 3) receptor (Rattus norvegicus, UniProt P19490+P19491+P19492).
T2 construct: expressed in transfected cells; host or cells: Xenopus oocytes injected with mRNA
Put plainly: Kainate-evoked currents in GluR1, 2, 3 receptors expressed in Xenopus oocytes. As to conditions: nefiracetam 1 µM; kainate 100 µM; holding voltage -30 mV; n=5. How it is done:
GluR 1, 2, 3 receptors which are AMPA receptors were expressed in Xenopus oocytes. Cell membrane currents evoked with kainate (100 µM) were recorded before and after administration of nefiracetam (1 µM) (n=5). […] The holding voltage was -30 mV. • (B): An oocyte expressing normal ACh receptors was loaded with Calcium Green. In Ca^2+-free (extCa^2+(-)) extracellular solution (extCa^2+(-)) and ordinary (i.e., Ca^2+-containing) extracellular solution, intracellular Ca^2+ ([Ca^2+]i) and Ach-evoked currents (IA) were recorded. The Ca^2+ rise was normalized by dividing "Δ increase of fluorescence intensity (DI)" by "base intensity (I)", and further by "current amplitude obtained with Ca^2+-free solution (2) (µA)". Indicated by "(1)" are currents obtained with Ca^2+-containing solution.
GluR1, 2, 3 receptors were expressed in Xenopus oocytes. Cell membrane currents evoked by kainate (100 µM) were recorded (n = 5) before and after treatment with nefiracetam (1 µM). The holding voltage was fixed at -30 mV.

A further assay addresses T3, normal ACh receptors (Tetronarce californica, UniProt P02710+P02712+P02714+P02718).
T3 construct: expressed in transfected cells; host or cells: Xenopus oocytes
Put plainly: Calcium permeability of normal ACh receptors in oocytes loaded with Calcium Green. As to conditions: normal solution + nefiracetam (1μM); ACh 100 µM; mean ± SD, n=7. How it is done: An oocyte expressing normal ACh receptors was loaded with Calcium Green. Intracellular calcium ([Ca^2+]i) and evoked currents (IA) were recorded for each of the cases in which administration of ACh (100 µM) was carried out in a Ca^2+-free (extCa^2+(-)) extracellular solution or in an ordinary extracellular solution (Calcium Green TM-1 (Molecular Probes, Inc. USA) was injected to the oocytes). The Ca^2+ rise was normalized by Δ increase (δI) of intensity/base intensity/current amplitude (µA) obtained with calcium-free media.
In Table 15, each value represents the average from seven oocytes (SD; standard deviation). ACh-evoked currents in the Xenopus oocytes expression system are composed of acetylcholine-gated channel currents and calcium-dependent chloride currents. Nefiracetam had no effect on calcium permeability through the nACh receptor channel. (Table 15). The results from Examples 6a and 6b indicate that nefiracetam modulated acetylcholine-gated channel currents but not calcium-sensitive chloride (Cl^-) currents.

Assay [5] deals with postsynaptic potential of a slice of the rat hippocampus. Put plainly: Paired-pulse facilitation of the postsynaptic potential in hippocampal slices. Particulars: nefiracetam-administered slices; interpulse intervals 50 to 150 msec. How it is done:
Paired pulses were applied to slices at varying interpulse intervals, between 50 and 150 msec before and 10 minute after the administration of nefiracetam. […] Briefly, reaction induced by the first pulse application was potentiated to a maximum of 120% by the next pulse application. However, the pulses were consistently lower than those obtained with slices that had not been administered nefiracetam (Table 6); therefore, nefiracetam is considered to maximally enhance release of glutamate serving as an excitatory neurotransmitter.

The test system of assay [6] is mutant ACh receptors lacking potent PKC phosphorylation sites on the α and δ subunits (mαΔPKC/Ser333m δΔPKC/Ser377). Put plainly: ACh-evoked currents in mutant ACh receptors lacking PKC phosphorylation sites expressed in Xenopus oocytes. Particulars: nefiracetam 1 µM.

Read-outs that look alike come from different tables or passages of the source.

T1 sequence (P02718 22-522): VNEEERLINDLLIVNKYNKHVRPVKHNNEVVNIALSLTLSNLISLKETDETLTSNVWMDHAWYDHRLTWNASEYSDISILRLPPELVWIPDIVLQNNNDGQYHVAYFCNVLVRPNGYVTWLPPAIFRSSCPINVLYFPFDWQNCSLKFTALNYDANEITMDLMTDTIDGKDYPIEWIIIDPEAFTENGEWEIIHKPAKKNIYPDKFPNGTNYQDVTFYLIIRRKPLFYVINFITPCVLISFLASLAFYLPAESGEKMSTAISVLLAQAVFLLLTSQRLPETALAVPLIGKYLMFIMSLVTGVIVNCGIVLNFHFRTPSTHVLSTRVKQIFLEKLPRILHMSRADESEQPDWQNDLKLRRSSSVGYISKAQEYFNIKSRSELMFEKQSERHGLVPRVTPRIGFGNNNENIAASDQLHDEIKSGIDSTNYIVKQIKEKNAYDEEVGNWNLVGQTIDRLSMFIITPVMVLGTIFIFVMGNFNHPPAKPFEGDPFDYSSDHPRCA
T1 sequence (P02712 25-493): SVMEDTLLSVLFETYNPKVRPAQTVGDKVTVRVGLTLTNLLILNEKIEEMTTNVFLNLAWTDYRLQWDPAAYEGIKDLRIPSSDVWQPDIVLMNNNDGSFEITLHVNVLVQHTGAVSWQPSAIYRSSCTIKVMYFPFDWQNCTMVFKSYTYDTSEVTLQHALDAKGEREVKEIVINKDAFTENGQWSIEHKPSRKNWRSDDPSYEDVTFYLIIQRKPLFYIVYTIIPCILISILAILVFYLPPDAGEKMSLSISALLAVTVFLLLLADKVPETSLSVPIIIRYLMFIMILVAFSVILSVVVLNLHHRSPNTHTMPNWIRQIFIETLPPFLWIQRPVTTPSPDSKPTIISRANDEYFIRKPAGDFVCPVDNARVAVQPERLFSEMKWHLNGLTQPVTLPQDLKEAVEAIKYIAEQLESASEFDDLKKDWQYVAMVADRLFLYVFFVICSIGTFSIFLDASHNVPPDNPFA
T1 sequence (P02710 25-461): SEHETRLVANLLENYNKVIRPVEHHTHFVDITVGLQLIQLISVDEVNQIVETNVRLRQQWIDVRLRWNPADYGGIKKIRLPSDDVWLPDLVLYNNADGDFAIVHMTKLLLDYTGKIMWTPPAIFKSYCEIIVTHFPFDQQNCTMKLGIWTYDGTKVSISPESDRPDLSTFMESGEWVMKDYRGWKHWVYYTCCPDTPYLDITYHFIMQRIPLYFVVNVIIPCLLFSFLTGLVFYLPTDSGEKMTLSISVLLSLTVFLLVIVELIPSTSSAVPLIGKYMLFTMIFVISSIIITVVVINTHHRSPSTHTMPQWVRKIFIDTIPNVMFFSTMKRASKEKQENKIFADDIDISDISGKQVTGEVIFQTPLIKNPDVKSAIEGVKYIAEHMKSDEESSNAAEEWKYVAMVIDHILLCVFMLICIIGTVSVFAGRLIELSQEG
T1 sequence (P02714 18-506): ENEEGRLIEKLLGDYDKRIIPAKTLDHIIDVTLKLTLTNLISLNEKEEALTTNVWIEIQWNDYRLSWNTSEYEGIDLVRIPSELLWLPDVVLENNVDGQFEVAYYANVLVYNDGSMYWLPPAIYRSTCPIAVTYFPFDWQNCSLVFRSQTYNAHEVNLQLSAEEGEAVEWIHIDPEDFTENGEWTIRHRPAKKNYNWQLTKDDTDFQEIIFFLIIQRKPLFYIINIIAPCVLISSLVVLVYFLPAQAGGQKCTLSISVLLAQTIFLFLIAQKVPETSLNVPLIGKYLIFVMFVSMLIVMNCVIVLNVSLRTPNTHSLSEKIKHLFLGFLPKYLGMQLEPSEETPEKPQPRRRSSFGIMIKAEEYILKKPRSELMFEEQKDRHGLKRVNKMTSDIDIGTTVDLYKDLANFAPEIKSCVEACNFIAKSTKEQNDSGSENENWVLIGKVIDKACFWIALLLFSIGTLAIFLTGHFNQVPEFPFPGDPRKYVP
T3 sequence (P02710 25-461): as the sequence (P02710 25-461) above
T3 sequence (P02712 25-493): as the sequence (P02712 25-493) above
T3 sequence (P02714 18-506): as the sequence (P02714 18-506) above
T3 sequence (P02718 22-522): as the sequence (P02718 22-522) above
T2 sequence (P19490 19-907): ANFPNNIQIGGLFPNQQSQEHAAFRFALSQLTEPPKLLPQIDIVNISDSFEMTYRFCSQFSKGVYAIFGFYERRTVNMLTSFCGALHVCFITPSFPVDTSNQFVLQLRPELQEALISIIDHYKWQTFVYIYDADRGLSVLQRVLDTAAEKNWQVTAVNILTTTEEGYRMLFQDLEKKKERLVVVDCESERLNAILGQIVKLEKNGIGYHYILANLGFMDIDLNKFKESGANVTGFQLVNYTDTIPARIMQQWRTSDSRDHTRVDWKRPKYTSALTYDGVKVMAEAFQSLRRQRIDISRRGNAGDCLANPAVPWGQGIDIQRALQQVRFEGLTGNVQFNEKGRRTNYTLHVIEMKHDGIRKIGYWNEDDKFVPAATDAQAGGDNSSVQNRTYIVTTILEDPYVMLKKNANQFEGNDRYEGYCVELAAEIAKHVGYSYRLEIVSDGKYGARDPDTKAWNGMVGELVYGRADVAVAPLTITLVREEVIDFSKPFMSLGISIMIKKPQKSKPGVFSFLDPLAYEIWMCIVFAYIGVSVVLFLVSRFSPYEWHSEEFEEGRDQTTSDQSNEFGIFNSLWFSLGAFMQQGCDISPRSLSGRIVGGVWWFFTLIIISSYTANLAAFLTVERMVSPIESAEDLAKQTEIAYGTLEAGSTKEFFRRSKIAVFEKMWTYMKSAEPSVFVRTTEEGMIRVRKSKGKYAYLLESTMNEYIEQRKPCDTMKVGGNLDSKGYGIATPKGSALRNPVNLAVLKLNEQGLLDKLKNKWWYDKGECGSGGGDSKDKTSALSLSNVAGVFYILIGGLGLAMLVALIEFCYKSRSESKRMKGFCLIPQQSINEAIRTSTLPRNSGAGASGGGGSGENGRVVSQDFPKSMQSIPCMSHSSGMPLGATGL
T2 sequence (P19491 22-883): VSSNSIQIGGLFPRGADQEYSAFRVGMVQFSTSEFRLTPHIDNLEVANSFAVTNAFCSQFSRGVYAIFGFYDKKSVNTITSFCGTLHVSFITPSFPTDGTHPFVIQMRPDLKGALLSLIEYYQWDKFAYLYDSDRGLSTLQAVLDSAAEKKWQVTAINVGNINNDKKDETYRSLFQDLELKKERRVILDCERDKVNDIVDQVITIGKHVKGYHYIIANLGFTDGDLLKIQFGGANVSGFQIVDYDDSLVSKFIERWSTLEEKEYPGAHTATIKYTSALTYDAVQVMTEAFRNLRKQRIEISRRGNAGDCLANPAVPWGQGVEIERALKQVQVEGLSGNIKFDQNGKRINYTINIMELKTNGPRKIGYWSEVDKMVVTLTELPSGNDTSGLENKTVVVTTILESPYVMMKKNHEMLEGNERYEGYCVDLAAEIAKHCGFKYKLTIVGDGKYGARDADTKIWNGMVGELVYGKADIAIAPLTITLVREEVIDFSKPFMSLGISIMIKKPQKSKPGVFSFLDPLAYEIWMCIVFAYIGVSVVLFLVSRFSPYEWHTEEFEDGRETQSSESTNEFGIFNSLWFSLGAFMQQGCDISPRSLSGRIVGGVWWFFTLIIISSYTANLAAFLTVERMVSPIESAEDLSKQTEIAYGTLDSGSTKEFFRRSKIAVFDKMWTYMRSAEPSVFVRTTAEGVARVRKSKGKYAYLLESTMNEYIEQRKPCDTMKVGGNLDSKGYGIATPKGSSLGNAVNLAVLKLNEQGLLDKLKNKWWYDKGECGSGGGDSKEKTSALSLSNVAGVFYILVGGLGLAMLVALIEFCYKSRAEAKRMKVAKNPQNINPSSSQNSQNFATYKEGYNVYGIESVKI
T2 sequence (P19492 23-888): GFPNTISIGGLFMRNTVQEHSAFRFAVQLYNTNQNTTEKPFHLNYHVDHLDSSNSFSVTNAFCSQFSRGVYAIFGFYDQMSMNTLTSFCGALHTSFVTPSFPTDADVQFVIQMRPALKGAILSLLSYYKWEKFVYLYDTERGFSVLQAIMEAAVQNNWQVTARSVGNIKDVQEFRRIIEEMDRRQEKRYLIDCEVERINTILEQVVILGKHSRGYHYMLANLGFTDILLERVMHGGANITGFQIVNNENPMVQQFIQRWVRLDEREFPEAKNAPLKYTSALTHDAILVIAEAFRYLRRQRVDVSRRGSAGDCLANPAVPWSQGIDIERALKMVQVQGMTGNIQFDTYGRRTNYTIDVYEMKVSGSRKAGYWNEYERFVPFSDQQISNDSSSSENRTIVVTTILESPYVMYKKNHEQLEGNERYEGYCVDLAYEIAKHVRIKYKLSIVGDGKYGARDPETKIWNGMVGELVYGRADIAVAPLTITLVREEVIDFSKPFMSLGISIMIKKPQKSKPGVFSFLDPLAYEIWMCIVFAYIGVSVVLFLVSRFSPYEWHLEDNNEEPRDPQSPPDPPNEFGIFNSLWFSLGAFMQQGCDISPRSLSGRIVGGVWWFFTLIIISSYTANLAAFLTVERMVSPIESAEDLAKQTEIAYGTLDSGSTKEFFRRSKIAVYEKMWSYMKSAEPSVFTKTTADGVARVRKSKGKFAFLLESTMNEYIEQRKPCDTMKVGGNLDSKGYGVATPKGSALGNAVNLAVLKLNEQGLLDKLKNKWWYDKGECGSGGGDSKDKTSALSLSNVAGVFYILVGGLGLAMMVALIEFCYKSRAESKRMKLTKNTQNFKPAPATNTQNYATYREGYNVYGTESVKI

Consider `Cc1cccc(C)c1NC(=O)CN1CCCC1=O` [nefiracetam, 2-oxo-1-pyrrolidinylacetic acid 2,6-dimethylanilide], for which the “ACh-evoked currents increased to” value in assay [1] is 159%. Besides, the “Postsynaptic potential (% of original amplitude)” value worked out at 50 ± 5% in assay [2] (Nefiracetam 0.01 µM, GF109203X(100nM), 10 min after treatment, n=5); 103 ± 8% in assay [2] (Nefiracetam 0.01 µM, H-89(1µM), 10 min after treatment, n=5); 108.8 ± 11.6% in assay [2] (Nefiracetam 1 µM, GF109203X(100nM), 10 min after treatment, n=5); 155 ± 8% in assay [2] (Nefiracetam 1 µM, H-89(1µM), 10 min after treatment, n=5). Also, the activity at 0.01 µM turned out to be 85 ± 5% in assay [2] (Rattus norvegicus, 10 min, Nefiracetam 0.01 µM, Control (no inhibitor), 10 min after treatment, n=5, read-out: Postsynaptic potential (% of original amplitude)) and 94 ± 5% in assay [2] (Rattus norvegicus, nefiracetam 0.01 µM, Mean ± SD, n = 5 to 7, read-out: Postsynaptic potential (% of original amplitude)). Moreover, the activity at 1 µM was 143 ± 2% in assay [2] (Rattus norvegicus, 10 min, Nefiracetam 1 µM, Control (no inhibitor), 10 min after treatment, n=5, read-out: Postsynaptic potential (% of original amplitude)); ~150% in assay [2] (Rattus norvegicus, 1 h, 60 minutes after the 1 µM treatment, read-out: magnitude of maximum facilitation of the postsynaptic potentials); 156 ± 6% in assay [2] (Rattus norvegicus, nefiracetam 1 µM, Mean ± SD, n = 5 to 7, read-out: Postsynaptic potential (% of original amplitude)); 243% in assay [3] (1.5 h, 1 µM, 10-min treatment, 90 min after washing-out, n=7, read-out: ACh-evoked currents enhanced, reaching). Moreover, the activity at 0.001 µM in assay [2] (Rattus norvegicus, nefiracetam 0.001 µM, Mean ± SD, n = 5 to 7, read-out: Postsynaptic potential (% of original amplitude)) was 95 ± 6%. The activity at 0.1 µM in assay [2] (Rattus norvegicus, nefiracetam 0.1 µM, Mean ± SD, n = 5 to 7, read-out: Postsynaptic potential (% of original amplitude)) was 111 ± 9%. The activity at 10 µM is 144 ± 11% in assay [2] (Rattus norvegicus, read-out: Postsynaptic potential (% of original amplitude), nefiracetam 10 µM, Mean ± SD, n = 5 to 7) and 255% in assay [3] (1.5 h, 10 µM, 10-min treatment, 90 min after washing-out, n=7, read-out: ACh-evoked currents enhanced, reaching). Also, the “concentrations giving short-term suppression of the postsynaptic potentials” value in assay [2] (biphasic effect, lower concentrations) was ≤ 0.1 µM. The inhibition at 0.01 µM in assay [3] (0.01 µM nefiracetam for 10 min, n=7, read-out: reduction in ACh-evoked current) was 70%. For the same compound, the inhibition at 0.1 µM in assay [3] (0.1 µM nefiracetam for 10 min, read-out: reduction in ACh-evoked current) came out at 62%. For the same compound, the “ACh-evoked currents reduced to” value in assay [3] (nefiracetam in the presence of GF109203X, 30 minutes after administration, n=7) is 60%. Further, the “effect on AMPA (GluR1, 2, 3) receptor currents (Fig. 1)” value in assay [4] was “never potentiated”. The “normalized Ca^2+ rise (Δ increase of intensity / base intensity / current amplitude)” value at normal ACh receptors came to 6.6 ± 1.4. Besides, in assay [5], the “paired-pulse facilitation: reaction to first pulse potentiated by the next pulse” value was ≤ 120%. In assay [6], the “current potentiation in mutant ACh receptors lacking PKC phosphorylation sites” value is listed as “exhibited no current potentiation”.
